This is an account of results in patent US11236087B2, “Highly active pyrazolo-piperidine substituted indole-2-carboxamides active against the hepatitis B virus (HBV)” (AiCuris GmbH & Co. KG, priority 2017, dated 2022).

Each structure is given as a SMILES string. pEC50, pIC50: −log10 of the molar value. A value given as a limit tells only on which side of the number the result lay.

Series [1] concerns HBV. The series can be described thus: Determination of HBV DNA from the supernatants of HepAD38 cells (anti-HBV activity). It is filed as cell-based, hepatitis B virus. The note with it: Hepatitis B virus, 144 h; HBV DNA in HepAD38 supernatant, day 6, qPCR; read-out: Cell Activity (EC50). An outline of the steps: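 Supernatant viral DNA was measured by LightCycler qPCR, calibrated with pCH-9/3091 plasmid, 6 days after tetracycline-free HepAD38 cultures received half-log serial compound dilutions; untreated and tetracycline-treated cells served as controls; EC50 was fitted by non-linear regression.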

Series [2] has as its target T1, HBV core protein (UniProt P03146).
T1 construct: fused on or other part: BODIPY-FL maleimide label on the C-terminal Cys150
The series can be described thus: Biochemical capsid assembly assay (fluorescence quenching). Details: species or system hepatitis B virus. The note with it: read-out: Assembly Activity (IC50); BODIPY-FL labelled core protein, 300 μM NaCl, read 6 min after start. As to the method:
Biochemical Capsid Assembly Assay
The screening for assembly effector activity was done based on a fluorescence quenching assay published by Zlotnick et al. (2007). The C-terminal truncated core protein containing 149 amino acids of the N-terminal assembly domain fused to a unique cysteine residue at position 150 and was expressed in E. coli using the pET expression system (Merck Chemicals, Darmstadt). Purification of core dimer protein was performed using a sequence of size exclusion chromatography steps. In brief, the cell pellet from 1 L BL21 (DE3) Rosetta2 culture expressing the coding sequence of core protein cloned NdeI/XhoI into expression plasmid pET21b was treated for 1 h on ice with a native lysis buffer (Qproteome Bacterial Protein Prep Kit; Qiagen, Hilden). After a centrifugation step the supernatant was precipitated during 2 h stirring on ice with 0.23 g/ml of solid ammonium sulfate. Following further centrifugation the resulting pellet was resolved in buffer A (100 mM Tris, pH 7.5; 100 mM NaCl; 2 mM DTT) and was subsequently loaded onto a buffer A equilibrated CaptoCore 700 column (GE HealthCare, Frankfurt). The column flow through containing the assembled HBV capsid was dialyzed against buffer N (50 mM NaHCO3 pH 9.6; 5 mM DTT) before urea was added to a final concentration of 3M to dissociate the capsid into core dimers for 1.5 h on ice. The protein solution was then loaded onto a 1 L Sephacryl S300 column. After elution with buffer N core dimer containing fractions were identified by SDS-PAGE and subsequently pooled and dialyzed against 50 mM HEPES pH 7.5; […]. To improve the assembly capacity of the purified core dimers a second round of assembly and disassembly starting with the addition of 5 M NaCl and including the size exclusion chromatography steps described above was performed. From the last chromatography step core dimer containing fractions were pooled and stored in aliquots at concentrations between 1.5 to 2.0 mg/ml at −80° C.
Immediately before labelling the core protein was reduced by adding freshly prepared DTT in a final concentration of 20 mM. After 40 min incubation on ice storage buffer and DTT was removed using a Sephadex G-25 column (GE HealthCare, Frankfurt) and 50 mM HEPES, pH 7.5. For labelling 1.6 mg/ml core protein was incubated at 4° C. and darkness overnight with BODIPY-FL maleimide (Invitrogen, Karlsruhe) in a final concentration of 1 mM. After labelling the free dye was removed by an additional desalting step using a Sephadex G-25 column. Labelled core dimers were stored in aliquots at 4° C. In the dimeric state the fluorescence signal of the labelled core protein is high and is quenched during the assembly of the core dimers to high molecular capsid structures. The screening assay was performed in black 384 well microtiter plates in a total assay volume of 10 μl using 50 mM HEPES pH 7.5 and 1.0 to 2.0 μM labelled core protein. Each screening compound was added in 8 different concentrations using a 0.5 log-unit serial dilution starting at a final concentration of 100 μM, 31.6 μM or 10 μM, In any case the DMSO concentration over the entire microtiter plate was 0.5%. The assembly reaction was started by the injection of NaCl to a final concentration of […] which induces the assembly process to approximately 25% of the maximal quenched signal. 6 min after starting the reaction the fluorescence signal was measured using a Clariostar plate reader (BMG Labtech, Ortenberg) with an excitation of 477 nm and an emission of 525 nm. As 100% and 0% assembly control HEPES buffer containing 2.5 M and 0 M NaCl was used. Experiments were performed thrice in triplicates. EC50 values were calculated by non-linear regression analysis using the Graph Pad Prism 6 software (GraphPad Software, La Jolla, USA).

Series [3] can be described thus: Cell viability assay (AlamarBlue) in HepAD38 cells. The note with it: human.

T1 sequence (P03146 whole entry, looked up, the tested form may be a part): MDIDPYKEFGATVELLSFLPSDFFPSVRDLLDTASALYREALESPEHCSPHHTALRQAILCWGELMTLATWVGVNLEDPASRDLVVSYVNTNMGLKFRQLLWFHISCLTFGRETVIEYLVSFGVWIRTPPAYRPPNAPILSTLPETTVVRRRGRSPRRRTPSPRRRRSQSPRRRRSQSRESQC

Turning to `Nc1n[nH]c2c1CN(C(=O)c1cc3ccccc3[nH]1)CC2` [Example 115, 5-(1H-indole-2-carbonyl)-1H,4H,5H,6H,7H-pyrazolo[4,3-c]pyridin-3-amine], in series [1], the pEC50 (usually the EC50 on a negative log10 scale, so that one unit is a factor of ten) is 4.60 to 6.00. Besides, the pIC50 (usually −log10 of the IC50, conventionally taken in molar units) in series [2] was 5.00 to 5.30. The 50% cytotoxic concentration (CC50) (in general, the concentration giving 50% cytotoxicity) at 6 days in series [3] was above 100 µM.

Consider `CN(C(=O)c1[nH]nc2c1CN(C(=O)c1cc3c(Cl)cccc3[nH]1)CC2)C1CC1` [Example 326, 5-(4-chloro-1H-indole-2-carbonyl)-N-cyclopropyl-N-methyl-2H,4H,5H,6H,7H-pyrazolo[4,3-c]pyridine-3-carboxamide], for which the pEC50 in series [1] is above 6.00. Besides, in series [2], the pIC50 was above 5.30. In series [3], this compound registered a CC50 at 6 days above 10 µM.

For `O=C(c1cc2c(F)cc(F)cc2[nH]1)N1C2CCC1c1cn[nH]c1C2` (stereo not drawn) [Example 117, 11-(4,6-difluoro-1H-indole-2-carbonyl)-4,5,11-triazatricyclo[6.2.1.0^2,6]undeca-2(6),3-diene], the negative logarithm of the EC50 (pEC50) in series [1] was above 4.00. In series [2], the pIC50 is above 4.00. Also, in series [3], the CC50 at 6 days is above 100 µM.

Consider `CN(CC1CCCO1)C(=O)c1n[nH]c2c1CN(C(=O)c1cc3ccccc3[nH]1)CC2` (stereo not drawn) [Example 97, 5-(1H-indole-2-carbonyl)-N-methyl-N-[(oxolan-2-yl)methyl]-1H,4H,5H,6H,7H-pyrazolo[4,3-c]pyridine-3-carboxamide], for which the pEC50 in series [1] was above 6.00. Besides, in series [2], the pIC50 is 5.00 to 5.30. Moreover, in series [3], the CC50 at 6 days was above 100 µM.

`O=C(c1cc2ccccc2[nH]1)N1CCc2[nH]nc(C(=O)N3CCS(=O)(=O)CC3)c2C1` [Example 158, 4-[5-(1H-indole-2-carbonyl)-1H,4H,5H,6H,7H-pyrazolo[4,3-c]pyridine-3-carbonyl]-1lambda6-thiomorpholine-1,1-dione]: the pEC50 in series [1] was 4.60 to 6.00. In addition, the pIC50 in series [2] was above 4.00. In addition, the CC50 at 6 days in series [3] is above 10 µM.

On to `COCC1(N(C)C(=O)c2n[nH]c3c2CN(C(=O)c2cc4c(C(F)F)cccc4[nH]2)CC3)CC1` [Example 299, 5-[4-(difluoromethyl)-1H-indole-2-carbonyl]-N-[1-(methoxymethyl)cyclopropyl]-N-methyl-1H,4H,5H,6H,7H-pyrazolo[4,3-c]pyridine-3-carboxamide], for which, in series [1], the pEC50 is above 6.00. Also, the pIC50 in series [2] is above 5.30. The CC50 at 6 days in series [3] is above 10 µM.

Turning to `O=C(c1cc2ccccc2[nH]1)N1CCc2[nH]nc(C(=O)N3Cc4cn[nH]c4C3)c2C1` [Example 181, 2-(3-{1H,4H,5H,6H-pyrrolo[3,4-c]pyrazole-5-carbonyl}-1H,4H,5H,6H,7H-pyrazolo[4,3-c]pyridine-5-carbonyl)-1H-indole], the pEC50 in series [1] was 4.60 to 6.00. Besides, in series [2], the pIC50 was 5.00 to 5.30. For the same compound, in series [3], the CC50 at 6 days is above 10 µM.

In the case of `CCc1cc(F)cc2[nH]c(C(=O)N3CCc4n[nH]c(-c5cscn5)c4C3)cc12` [Example 12, 4-ethyl-6-fluoro-2-[3-(1,3-thiazol-4-yl)-2H,4H,5H,6H,7H-pyrazolo[4,3-c]pyridine-5-carbonyl]-1H-indole], in series [1], the pEC50 is above 6.00. Also, the pIC50 in series [2] was above 5.30. Moreover, the CC50 at 6 days in series [3] was above 10 µM.

For `O=C(c1cc2ccccc2[nH]1)N1CCc2[nH]nc(C(=O)N3CC(CCO)C3)c2C1` [Example 44, 2-{1-[5-(1H-indole-2-carbonyl)-1H,4H,5H,6H,7H-pyrazolo[4,3-c]pyridine-3-carbonyl]azetidin-3-yl}ethan-1-ol], the pEC50 in series [1] is 4.60 to 6.00. Also, the pIC50 in series [2] was above 4.00. Besides, the CC50 at 6 days in series [3] was above 100 µM.

Consider `CCc1ccc(F)c2[nH]c(C(=O)N3CCc4[nH]nc(C(=O)N(C)CCO)c4C3)cc12` [Example 9, 5-(4-ethyl-7-fluoro-1H-indole-2-carbonyl)-N-(2-hydroxyethyl)-N-methyl-1H,4H,5H,6H,7H-pyrazolo[4,3-c]pyridine-3-carboxamide], for which the pEC50 in series [1] was above 6.00. The pIC50 in series [2] is above 5.30. This compound also showed a CC50 at 6 days in series [3] above 10 µM.

As for `CN(C(=O)c1[nH]nc2c1CN(C(=O)c1cc3ccccc3[nH]1)CC2)C1(c2cocn2)CC1` [Example 368, 5-(1H-indole-2-carbonyl)-N-methyl-N-[1-(1,3-oxazol-4-yl)cyclopropyl]-2H,4H,5H,6H,7H-pyrazolo[4,3-c]pyridine-3-carboxamide], the pEC50 in series [1] was above 6.00. In addition, in series [2], the pIC50 is above 5.30. Moreover, in series [3], the CC50 at 6 days was above 10 µM.

With `CN(Cc1ccccc1)C(=O)c1n[nH]c2c1CN(C(=O)c1cc3ccccc3[nH]1)CC2` [Example 178, N-benzyl-5-(1H-indole-2-carbonyl)-N-methyl-1H4H,5H,6H,7H-pyrazolo[4,3-c]pyridine-3-carboxamide], the pEC50 in series [1] was above 6.00. For the same compound, the pIC50 in series [2] was above 5.30. Besides, the CC50 at 6 days in series [3] was above 10 µM.

With `COCC1(N(CC(F)F)C(=O)c2n[nH]c3c2CN(C(=O)c2cc4ccccc4[nH]2)CC3)CC1` [Example 303, N-(2,2-difluoroethyl)-5-(1H-indole-2-carbonyl)-N-[1-(methoxymethyl)cyclopropyl]-1H,4H,5H,6H,7H-pyrazolo[4,3-c]pyridine-3-carboxamide], in series [1], the pEC50 was above 6.00. Also, in series [2], the pIC50 was above 5.30. For the same compound, in series [3], the CC50 at 6 days was above 10 µM.

As to `CCN(C(=O)c1n[nH]c2c1CN(C(=O)c1cc3ccccc3[nH]1)CC2)C1COC1` [Example 185, N-ethyl-5-(1H-indole-2-carbonyl)-N-(oxetan-3-yl)-1H,4H,5H,6H,7H-pyrazolo[4,3-c]pyridine-3-carboxamide], in series [1], the pEC50 is above 6.00. Further, the pIC50 in series [2] was 5.00 to 5.30. In addition, the CC50 at 6 days in series [3] was above 10 µM.

Regarding `CON=C(C)c1n[nH]c2c1CN(C(=O)c1cc3ccccc3[nH]1)CC2` [Example 274, {1-[5-(1H-indole-2-carbonyl)-1H,4H,5H,6H,7H-pyrazolo[4,3-c]pyridin-3-yl]ethylidene}(methoxy)amine], in series [1], the pEC50 is 4.60 to 6.00. The pIC50 in series [2] was above 4.00. In series [3], the CC50 at 6 days is above 10 µM.

Consider `CN(CC1CCOC1)C(=O)c1n[nH]c2c1CN(C(=O)c1cc3ccccc3[nH]1)CC2` (stereo not drawn) [Example 95, 5-(1H-indole-2-carbonyl)-N-methyl-N-[(oxolan-3-yl)methyl]-1H,4H,5H,6H,7H-pyrazolo[4,3-c]pyridine-3-carboxamide], for which, in series [1], the pEC50 was 4.60 to 6.00. For the same compound, the pIC50 in series [2] is above 4.00. For the same compound, the CC50 at 6 days in series [3] is above 100 µM.

Consider `CN(C(=O)c1n[nH]c2c1CN(C(=O)c1cc3ccccc3[nH]1)CC2)C(C)(C)CO` [Example 143, N-(1-hydroxy-2-methylpropan-2-yl)-5-(1H-indole-2-carbonyl)-N-methyl-1H,4H,5H,6H,7H-pyrazolo[4,3-c]pyridine-3-carboxamide], for which the pEC50 in series [1] was 4.60 to 6.00. Further, the negative logarithm of the IC50 (pIC50) in series [2] was 5.00 to 5.30.

For the compound `COC(=O)C1CCN(C(=O)c2n[nH]c3c2CN(C(=O)c2cc4ccccc4[nH]2)CC3)CC1` [Example 132, methyl 1-[5-(1H-indole-2-carbonyl)-1H,4H,5H,6H,7H-pyrazolo[4,3-c]pyridine-3-carbonyl]piperidine-4-carboxylate], the pIC50 in series [2] was above 5.30. The compound also came in with a CC50 at 6 days in series [3] above 10 µM.

As for `CN(C(=O)c1[nH]nc2c1CN(C(=O)c1cc3ccc(F)cc3[nH]1)CC2)C1CC1` [Example 320, N-cyclopropyl-5-(6-fluoro-1H-indole-2-carbonyl)-N-methyl-2H,4H,5H,6H,7H-pyrazolo[4,3-c]pyridine-3-carboxamide], in series [1], the pEC50 was above 6.00. The same compound returned a CC50 at 6 days in series [3] above 10 µM.
